Reference: ChEMBL document CHEMBL5346882 (Eur J Med Chem, 2023)

Assays:
Cholinesterase [1] = molecular target: T1, Cholinesterase (Homo sapiens, UniProt P06276); experiment: Inhibition of human recombinant BuChE using butyrylthiocholine iodide as substrate at 1 uM preincubated for 5 mins followed by substrate addition and measured after 5 mins by DTNB-reagent based Ellman's method relative to control; conditions: time 10.0 min
[2] = molecular target: Cholinesterase (Equus caballus) (UniProt P81908); experiment: Inhibition of horse serum BuChE using butyrylthiocholine iodide as substrate at 10 uM preincubated for 5 mins followed by substrate addition and measured after 5 mins by DTNB-reagent based Ellman's method relative to control; format: cell-free; conditions: time 10.0 min
Sequence of Cholinesterase (Equus caballus) (P81908 whole entry): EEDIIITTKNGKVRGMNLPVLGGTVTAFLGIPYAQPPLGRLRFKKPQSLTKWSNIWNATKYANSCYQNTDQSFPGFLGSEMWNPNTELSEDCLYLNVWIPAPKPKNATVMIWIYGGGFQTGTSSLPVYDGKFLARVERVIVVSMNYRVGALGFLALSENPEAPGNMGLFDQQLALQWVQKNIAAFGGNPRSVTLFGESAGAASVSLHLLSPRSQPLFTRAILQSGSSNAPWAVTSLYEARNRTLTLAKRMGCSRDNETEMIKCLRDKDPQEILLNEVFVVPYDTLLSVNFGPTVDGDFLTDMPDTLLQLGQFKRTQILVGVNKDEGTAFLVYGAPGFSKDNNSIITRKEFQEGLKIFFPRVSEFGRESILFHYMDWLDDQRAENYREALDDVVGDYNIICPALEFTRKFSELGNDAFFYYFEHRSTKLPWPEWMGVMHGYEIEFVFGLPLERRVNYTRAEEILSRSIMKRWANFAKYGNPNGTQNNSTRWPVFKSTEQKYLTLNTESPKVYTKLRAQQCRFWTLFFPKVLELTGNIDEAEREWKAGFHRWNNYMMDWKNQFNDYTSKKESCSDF

Cytochrome P450 2D6 = Cytochrome P450 2D6 (Homo sapiens, UniProt P10635); experiment: Inhibition of CYP2D6 (unknown origin) at 10 uM; format: ADME
Sequence of Cytochrome P450 2D6 (P10635 whole entry): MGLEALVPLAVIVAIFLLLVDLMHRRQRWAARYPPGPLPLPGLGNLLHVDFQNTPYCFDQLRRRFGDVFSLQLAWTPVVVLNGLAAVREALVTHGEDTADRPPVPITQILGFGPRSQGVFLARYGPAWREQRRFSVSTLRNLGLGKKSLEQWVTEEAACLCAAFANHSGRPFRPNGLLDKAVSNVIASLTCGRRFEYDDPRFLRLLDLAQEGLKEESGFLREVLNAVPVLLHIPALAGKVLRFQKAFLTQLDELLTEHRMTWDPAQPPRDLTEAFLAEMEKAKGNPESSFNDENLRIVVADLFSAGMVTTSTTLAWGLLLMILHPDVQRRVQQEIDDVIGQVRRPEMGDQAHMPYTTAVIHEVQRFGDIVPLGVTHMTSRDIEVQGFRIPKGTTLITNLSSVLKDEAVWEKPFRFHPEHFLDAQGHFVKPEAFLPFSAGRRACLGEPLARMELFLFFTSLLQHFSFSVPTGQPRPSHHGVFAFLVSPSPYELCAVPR

Cytochrome P450 3A4 = Cytochrome P450 3A4 (Homo sapiens, UniProt P08684); experiment: Inhibition of CYP3A4 (unknown origin) at 10 uM; format: ADME
Sequence of Cytochrome P450 3A4 (P08684 whole entry): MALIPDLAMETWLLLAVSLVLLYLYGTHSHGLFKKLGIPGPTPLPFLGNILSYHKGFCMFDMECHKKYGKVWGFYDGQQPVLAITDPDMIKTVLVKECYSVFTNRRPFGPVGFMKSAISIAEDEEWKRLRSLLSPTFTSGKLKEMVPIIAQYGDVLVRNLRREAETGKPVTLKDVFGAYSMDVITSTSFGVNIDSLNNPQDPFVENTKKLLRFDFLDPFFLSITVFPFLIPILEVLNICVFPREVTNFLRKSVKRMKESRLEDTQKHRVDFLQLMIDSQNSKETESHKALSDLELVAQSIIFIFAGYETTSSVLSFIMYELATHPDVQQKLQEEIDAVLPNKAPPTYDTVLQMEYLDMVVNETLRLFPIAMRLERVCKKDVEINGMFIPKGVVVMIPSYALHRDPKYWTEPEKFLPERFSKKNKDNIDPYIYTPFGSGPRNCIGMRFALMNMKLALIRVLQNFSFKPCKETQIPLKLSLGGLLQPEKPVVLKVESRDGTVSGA

in vitro = conditions: human, HepG2 cells
Description: Hepatotoxicity in human HepG2 cells assessed as reduction in cell viability incubated for 72 hrs by MTS assay

cells [3] = conditions: Mus musculus, HEK293
Description: Inhibition of mouse GAT3 expressed in HEK293 cells assessed as reduction in [3H]-GABA uptake incubated for 10 mins

Cholinesterase [4] = molecular target: Cholinesterase (Equus caballus, UniProt P81908)
Sequence of Cholinesterase (Equus caballus, UniProt P81908) (P81908 whole entry): as the sequence (P81908 whole entry) above
Description: Inhibition of horse serum BuChE using butyrylthiocholine iodide as substrate preincubated for 5 mins followed by substrate addition and measured after 5 mins by DTNB-reagent based Ellman's method

Cholinesterase [5] = molecular target: T1, Cholinesterase
Description: Inhibition of human recombinant BuChE using butyrylthiocholine iodide as substrate preincubated for 5 mins followed by substrate addition and measured after 5 mins by DTNB-reagent based Ellman's method

cells [6] = conditions: Mus musculus, HEK293; remark: listed apart in the source
Description: Inhibition of mouse GAT2 expressed in HEK293 cells assessed as reduction in [3H]-GABA uptake incubated for 10 mins

GABA transporter 4 = molecular target: T2, GABA transporter 4 (Mus musculus, UniProt P31650); experiment: Inhibition of mouse GAT4 expressed in HEK293 cells assessed as reduction in [3H]-GABA uptake incubated for 10 mins; format: cell-based
T2 sequence (P31650 whole entry): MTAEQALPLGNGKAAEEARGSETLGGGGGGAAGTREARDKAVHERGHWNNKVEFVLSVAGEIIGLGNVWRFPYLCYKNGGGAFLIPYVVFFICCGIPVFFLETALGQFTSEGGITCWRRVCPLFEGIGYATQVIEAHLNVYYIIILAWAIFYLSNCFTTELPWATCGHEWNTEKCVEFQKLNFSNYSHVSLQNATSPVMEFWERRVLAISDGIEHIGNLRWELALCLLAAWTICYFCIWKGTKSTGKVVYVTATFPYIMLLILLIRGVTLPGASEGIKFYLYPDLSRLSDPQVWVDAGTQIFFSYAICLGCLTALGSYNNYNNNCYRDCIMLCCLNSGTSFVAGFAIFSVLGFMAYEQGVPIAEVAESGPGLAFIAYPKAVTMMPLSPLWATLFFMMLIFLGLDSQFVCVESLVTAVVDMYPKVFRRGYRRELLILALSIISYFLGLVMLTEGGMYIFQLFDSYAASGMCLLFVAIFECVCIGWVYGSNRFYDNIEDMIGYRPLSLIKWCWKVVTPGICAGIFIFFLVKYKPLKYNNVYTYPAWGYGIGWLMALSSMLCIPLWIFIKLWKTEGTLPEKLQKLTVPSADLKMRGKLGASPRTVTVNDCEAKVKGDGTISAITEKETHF

[7] = molecular target: Sodium- and chloride-dependent GABA transporter 1 (Mus musculus, UniProt P31648); experiment: Inhibition of mouse GAT1 expressed in HEK293 cells assessed as reduction in [3H]-GABA uptake incubated for 10 mins; format: cell-based
[8] = Drug metabolism in human liver microsomes assessed as N-dealkylation mediated metabolite formation; format: ADME, Microsome
[9] = Metabolic stability in human liver microsomes assessed as parent compound remaining incubated for 120 mins in presence of NADPH regeneration system by UPLC/MS analysis; format: ADME, Microsome; conditions: read-out: Stability
[10] = Drug metabolism in human liver microsomes assessed as oxidation mediated metabolite formation; format: ADME, Microsome
[11] = Drug metabolism in human liver microsomes assessed as hydroxylation mediated metabolite formation; format: ADME, Microsome
hERG (KCNH2) = hERG (KCNH2) (Homo sapiens, UniProt Q12809); experiment: Inhibition of human ERG at 10 uM relative to control; format: toxicity
[12] = Toxicity in Albino Swiss CD-1 mouse model of scopolamine induced memory deficit assessed as motor deficit at 30 mg/kg, ip pretreated for 30 mins followed by scopolamine administration and measured after 30 mins; format: organism-based; conditions: in vivo, 1 h, time 60 min
[13] = molecular target: ATP-dependent translocase ABCB1 (Homo sapiens, UniProt P08183); experiment: Substrate activity at P-gp membranes (unknown origin) at 100 uM incubated for 40 mins by luminescent glo assay relative to control; format: ADME, cell membranes, Membrane
Sequence of ATP-dependent translocase ABCB1 (P08183 whole entry): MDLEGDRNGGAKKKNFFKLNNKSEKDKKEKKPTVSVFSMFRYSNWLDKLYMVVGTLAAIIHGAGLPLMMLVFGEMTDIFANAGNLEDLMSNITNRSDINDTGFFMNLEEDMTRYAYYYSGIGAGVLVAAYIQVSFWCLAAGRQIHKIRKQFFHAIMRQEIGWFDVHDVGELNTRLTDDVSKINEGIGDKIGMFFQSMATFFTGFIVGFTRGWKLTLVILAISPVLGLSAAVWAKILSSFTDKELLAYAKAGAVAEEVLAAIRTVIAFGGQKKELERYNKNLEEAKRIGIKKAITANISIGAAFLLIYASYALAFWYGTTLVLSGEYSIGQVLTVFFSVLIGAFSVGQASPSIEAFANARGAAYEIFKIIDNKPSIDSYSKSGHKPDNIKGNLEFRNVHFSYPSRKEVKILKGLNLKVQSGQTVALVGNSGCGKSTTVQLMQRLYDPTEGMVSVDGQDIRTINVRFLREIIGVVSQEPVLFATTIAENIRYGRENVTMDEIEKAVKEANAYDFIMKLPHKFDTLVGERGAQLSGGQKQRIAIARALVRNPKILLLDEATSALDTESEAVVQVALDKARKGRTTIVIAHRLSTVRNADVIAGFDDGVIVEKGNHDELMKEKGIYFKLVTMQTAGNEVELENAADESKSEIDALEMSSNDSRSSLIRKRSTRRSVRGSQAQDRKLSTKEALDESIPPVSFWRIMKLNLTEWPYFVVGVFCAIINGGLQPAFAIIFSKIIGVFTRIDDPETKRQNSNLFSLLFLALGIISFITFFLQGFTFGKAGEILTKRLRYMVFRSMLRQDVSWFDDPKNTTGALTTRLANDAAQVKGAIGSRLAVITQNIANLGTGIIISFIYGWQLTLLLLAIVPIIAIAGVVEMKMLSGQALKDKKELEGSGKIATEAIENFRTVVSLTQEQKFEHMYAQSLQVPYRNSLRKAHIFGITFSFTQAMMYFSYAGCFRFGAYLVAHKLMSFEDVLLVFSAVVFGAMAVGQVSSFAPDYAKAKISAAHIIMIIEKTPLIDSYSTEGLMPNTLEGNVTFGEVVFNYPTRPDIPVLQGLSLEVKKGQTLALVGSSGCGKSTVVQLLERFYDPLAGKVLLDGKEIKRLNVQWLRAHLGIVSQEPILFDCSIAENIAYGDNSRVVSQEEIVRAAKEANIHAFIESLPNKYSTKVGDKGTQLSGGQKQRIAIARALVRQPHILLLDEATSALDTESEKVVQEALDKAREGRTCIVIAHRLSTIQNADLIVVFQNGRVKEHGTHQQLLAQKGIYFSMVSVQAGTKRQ

[14] = Toxicity in Albino Swiss CD-1 mouse model of scopolamine induced memory deficit assessed as sedation at 30 mg/kg, ip pretreated for 30 mins followed by scopolamine administration and measured after 30 mins; format: organism-based; conditions: in vivo, 1 h, time 60 min

T1 sequence (P06276 whole entry): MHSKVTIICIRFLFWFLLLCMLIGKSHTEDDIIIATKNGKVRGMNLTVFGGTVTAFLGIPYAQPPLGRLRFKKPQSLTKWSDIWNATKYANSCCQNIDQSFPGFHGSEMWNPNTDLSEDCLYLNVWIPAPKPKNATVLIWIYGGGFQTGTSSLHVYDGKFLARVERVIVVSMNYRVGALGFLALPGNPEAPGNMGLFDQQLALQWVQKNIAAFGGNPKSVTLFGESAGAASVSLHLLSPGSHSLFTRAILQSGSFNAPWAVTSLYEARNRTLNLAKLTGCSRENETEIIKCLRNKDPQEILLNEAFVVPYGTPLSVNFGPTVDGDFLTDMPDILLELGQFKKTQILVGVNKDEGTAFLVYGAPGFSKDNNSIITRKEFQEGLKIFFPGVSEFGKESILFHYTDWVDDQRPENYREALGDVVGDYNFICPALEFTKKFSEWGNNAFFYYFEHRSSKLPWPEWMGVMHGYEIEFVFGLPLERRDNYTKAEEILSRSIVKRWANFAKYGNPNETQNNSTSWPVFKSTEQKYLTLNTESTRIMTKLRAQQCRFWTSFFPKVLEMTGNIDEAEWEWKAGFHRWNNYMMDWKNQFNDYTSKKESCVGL

Which inhibition (Cholinesterase [1]) does the source give for `CC(C)(NCC(O)CNC(=O)C(c1ccccc1)c1ccccc1)c1ccccc1` (racemic) here?
The inhibition was less than 20%.

And the inhibition [2]?
The inhibition was 42%.

For `O=C(NC[C@H](O)CNCC1CCCCC1)C(c1ccccc1)c1ccccc1`, which “inhibition (INH)” value (Cytochrome P450 2D6) is on record?
The value was “Active”.

And the “inhibition (INH)” value (Cytochrome P450 3A4)?
Its value is “Active”.

And the CC50 at 72 h (in vitro)?
Its CC50 at 72 h is 18700 nM.

What does the source list for `O=C(NCC(O)CNCC1CC1)C(c1ccccc1)c1ccccc1` (racemic)?
inhibition (Cholinesterase [1]): < 20%; inhibition [2]: 47%

Which results are given for `CC(C)(C)c1cccc(CNCC(O)CNC(=O)CC(c2ccccc2)c2ccccc2)c1` (racemic)?
IC50 (cells [3]): > 10000 nM; IC50 (Cholinesterase [4]): 320 nM; IC50 (Cholinesterase [5]): 180 nM; IC50 (cells [6]): > 10000 nM; IC50 (GABA transporter 4): > 10000 nM; IC50 [7]: > 10000 nM

What does the source list for `CC(C)(NCC(O)CNC(=O)CC(c1ccccc1)c1ccccc1)c1ccccc1` (racemic)?
inhibition (Cholinesterase [1]): < 20%; inhibition [2]: 44%

With `O=C(CC(c1ccccc1)c1ccccc1)NCC(O)CNCc1cccc(C(F)(F)F)c1` (racemic) as the compound, how does the IC50 (Cholinesterase [4]) read?
Its IC50 is 1730 nM.

And the IC50 (Cholinesterase [5])?
The IC50 was 410 nM.

For `CC(C)(C)c1cccc(CNCC(O)CNC(=O)C(c2ccccc2)c2ccccc2)c1` (racemic), which IC50 (cells [3]) is on record?
The IC50 was greater than 10000 nM.

And the IC50 (Cholinesterase [4])?
The IC50 was 260 nM.

What about the IC50 (Cholinesterase [5]) of the same compound?
The IC50 was 100 nM.

And the IC50 (cells [6])?
Its IC50 is greater than 10000 nM.

And the IC50 (GABA transporter 4)?
The IC50 was greater than 10000 nM.

What about the IC50 [7] of the same compound?
Its IC50 is greater than 10000 nM.

Which inhibition (Cholinesterase [1]) does the source give for `COc1cccc(CNCC(O)CNC(=O)C(c2ccccc2)c2ccccc2)c1` (racemic) here?
The inhibition was 70%.

And the IC50 (Cholinesterase [4])?
Its IC50 is 2180 nM.

With `CC(C)(C)c1ccc(CNCC(O)CNC(=O)C(c2ccccc2)c2ccccc2)cc1` (racemic) as the compound, how does the IC50 (Cholinesterase [4]) read?
The IC50 was 1120 nM.

And the IC50 (Cholinesterase [5])?
Its IC50 is 300 nM.

What does the source list for `O=C(NCC(O)CNCC1CCCCC1)C(c1ccccc1)c1ccccc1` (stereo not drawn)?
Drug metabolism [8]: Metabolite_Detected; inhibition (INH) (Cytochrome P450 2D6): Active; inhibition (INH) (Cytochrome P450 3A4): Active; remaining at 2 h [9]: > 80%

For `CC(C)c1cccc(CNCC(O)CNC(=O)CC(c2ccccc2)c2ccccc2)c1` (racemic), which IC50 (Cholinesterase [4]) is on record?
The IC50 was 630 nM.

What about the IC50 (Cholinesterase [5]) of the same compound?
The IC50 was 260 nM.

Which IC50 (cells [3]) does the source give for `O=C(CC(c1ccccc1)c1ccccc1)NCC(O)CNCC1CC1` (racemic) here?
The IC50 was greater than 10000 nM.

And the inhibition (Cholinesterase [1])?
Its inhibition is 46%.

And the IC50 (Cholinesterase [4])?
The IC50 was 3580 nM.

What about the IC50 (cells [6]) of the same compound?
The IC50 was greater than 10000 nM.

What about the IC50 (GABA transporter 4) of the same compound?
Its IC50 is greater than 10000 nM.

What about the IC50 [7] of the same compound?
Its IC50 is greater than 10000 nM.

With `COc1cccc(CNCC(O)CNC(=O)CC(c2ccccc2)c2ccccc2)c1` (racemic) as the compound, how does the IC50 (Cholinesterase [4]) read?
Its IC50 is 660 nM.

And the IC50 (Cholinesterase [5])?
Its IC50 is 250 nM.

Which Drug metabolism [10] does the source give for `O=C(CC(c1ccccc1)c1ccccc1)NCC(O)CNCc1ccccc1` (racemic) here?
Its Drug metabolism is “Metabolite_Detected”.

And the IC50 (Cholinesterase [4])?
The IC50 was 610 nM.

And the IC50 (Cholinesterase [5])?
Its IC50 is 280 nM.

And the Drug metabolism [8]?
The Drug metabolism was “Metabolite_Detected”.

What about the “inhibition (INH)” value (Cytochrome P450 2D6) of the same compound?
The value was “Active”.

And the “inhibition (INH)” value (Cytochrome P450 3A4)?
The value was “Active”.

What about the remaining at 2 h [9] of the same compound?
The remaining at 2 h was 66%.

What about the Drug metabolism [11] of the same compound?
Its Drug metabolism is “Metabolite_Detected”.

For `C[C@H](NCC(O)CNC(=O)C(c1ccccc1)c1ccccc1)c1ccccc1` (mixture of isomers), which inhibition (Cholinesterase [1]) is on record?
The inhibition was less than 20%.

What about the IC50 (Cholinesterase [4]) of the same compound?
Its IC50 is 4540 nM.

For `C[C@H](NCC(O)CNC(=O)CC(c1ccccc1)c1ccccc1)c1ccccc1` (mixture of isomers), which inhibition (Cholinesterase [1]) is on record?
Its inhibition is 34%.

What about the IC50 (Cholinesterase [4]) of the same compound?
The IC50 was 4770 nM.

Which “inhibition (INH)” value (Cytochrome P450 2D6) does the source give for `O=C(NC[C@@H](O)CNCC1CCCCC1)C(c1ccccc1)c1ccccc1` here?
The value was “Active”.

And the “inhibition (INH)” value (Cytochrome P450 3A4)?
The value was “Active”.

And the CC50 at 72 h (in vitro)?
Its CC50 at 72 h is 25800 nM.

What does the source list for `O=C(CC(c1ccccc1)c1ccccc1)NC[C@H](O)CNCC1CCCCC1`?
inhibition at 10 µM (hERG (KCNH2)): < 50%; Activity [12]: Toxic; inhibition (INH) (Cytochrome P450 2D6): Active; inhibition (INH) (Cytochrome P450 3A4): Active; CC50 at 72 h (in vitro): 2850 nM; Activity [13]: <= 190%; Activity [14]: Toxic

Which results are given for `O=C(CC(c1ccccc1)c1ccccc1)NC[C@@H](O)CNCC1CCCCC1`?
inhibition at 10 µM (hERG (KCNH2)): < 50%; inhibition (INH) (Cytochrome P450 2D6): Active; inhibition (INH) (Cytochrome P450 3A4): Active; CC50 at 72 h (in vitro): 3210 nM; Activity [13]: <= 190%

Which IC50 (Cholinesterase [4]) does the source give for `O=C(NCC(O)CNCc1cccc(C(F)(F)F)c1)C(c1ccccc1)c1ccccc1` (racemic) here?
The IC50 was 960 nM.

What about the IC50 (Cholinesterase [5]) of the same compound?
Its IC50 is 700 nM.

Which IC50 (Cholinesterase [4]) does the source give for `CC(C)(C)c1ccc(CNCC(O)CNC(=O)CC(c2ccccc2)c2ccccc2)cc1` (racemic) here?
The IC50 was 1940 nM.

What about the IC50 (Cholinesterase [5]) of the same compound?
Its IC50 is 160 nM.

What does the source list for `O=C(NCC(O)CNCc1ccccc1)C(c1ccccc1)c1ccccc1` (racemic)?
IC50 (cells [3]): > 10000 nM; inhibition (Cholinesterase [1]): < 20%; IC50 (Cholinesterase [4]): 2540 nM; IC50 (cells [6]): > 10000 nM; IC50 (GABA transporter 4): > 10000 nM; IC50 [7]: > 10000 nM
